Tested on: HT29 tumors
Assay: HT29 tumor growth retardation after photodynamic therapy (Kaplan-Meier)
Type: in vivo, mice
Conditions: photodynamic therapy with laser activation
Description: FIG. 8 illustrates Kaplan-Meier diagrams of HT29 tumor growth retardation after treatment with free mTHPC; the liposomal formulation of mTHPC (mTHPC Liposome) and mTHPC vesicles with laser activation of the drug (photodynamic therapy), compared to the same groups without laser activation (control, dotted lines).
FIG. 8 illustrates Kaplan-Meier diagrams of tumor growth retardation HT29 after treatment with free mTHPC; the liposomal formulation of mTHPC and mTHPC-EVs with laser activation of the drug (photodynamic therapy, three-dimensional therapies), compared to the same groups without laser activation (control, dotted lines). The inventors have compared the therapeutic effect of EVs mTHPC, the liposomal formulation of mTHPC and free mTHPC in terms of tumor growth, 90 days after treatment. […] Thus, compared to the liposomes, the charged vesicles of active agents obtained according to the methods of the present invention can constitute a very advantageous alternative both of the point of view of the pharmacodynamics properties and the effectiveness of the treatment carried out. The liposomes are known for the vectorization of various biomolecules such as enzymes, hormones, antisense oligonucleotides, ribozymes, proteins or DNA peptides, cancer molecules (Farjadian et al 2018). […]

## Oc1cccc(-c2c3nc(c(-c4cccc(O)c4)c4ccc([nH]4)c(-c4cccc(O)c4)c4nc(c(-c5cccc(O)c5)c5ccc2[nH]5)CC4)C=C3)c1 [mTHPC, meta-tetra (hydroxyphenyl) chlorin]
  percentage of tumors (growth 10 times higher criterion) at day 90: 20%

Reference: patent publication US20220162537A1, “FLUID SYSTEM FOR PRODUCING EXTRACELLULAR VESICLES COMPRISING A THERAPEUTIC OR IMAGING AGENT AND METHOD THEREOF” (CENTRE NATIONAL DE LA RECHERCHE SCIENTIFIQUE, priority 2018, published 2022)
